The target of assay [1] is T1, human bradykinin 1 receptor (B1R) (Homo sapiens, UniProt P46663).
T1 construct: expressed in transfected cells; host or cells: CHO K1 cells
T1 sequence (P46663 1-353): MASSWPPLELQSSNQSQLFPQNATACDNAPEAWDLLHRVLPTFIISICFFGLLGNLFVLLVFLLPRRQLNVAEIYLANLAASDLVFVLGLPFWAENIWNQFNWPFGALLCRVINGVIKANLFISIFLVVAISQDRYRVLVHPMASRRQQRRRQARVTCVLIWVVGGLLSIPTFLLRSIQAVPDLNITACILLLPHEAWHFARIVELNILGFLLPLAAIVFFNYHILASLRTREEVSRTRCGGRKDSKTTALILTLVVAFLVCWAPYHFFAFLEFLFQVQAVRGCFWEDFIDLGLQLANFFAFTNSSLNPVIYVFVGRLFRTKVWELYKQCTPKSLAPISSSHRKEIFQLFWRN
The assay is described as follows: Functional investigation on the human bradykinin 1 receptor (B1R), Ca2+ FLIPR assay in CHO K1 hB1R cells. The format is cell-based. The note with it: test substance 10 μM, Ca2+ FLIPR, CHO K1 hB1R cells; for inhibition at 10 µM: CHO-K1, B1R antagonism human, read-out: B1R Ant. h [10 μM] % Inhibition; for B1R Ant. h [10 μM] % Inhibition: B1R antagonism human. A digest of the protocol:
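Stably transfected CHO K1 cells loaded with Fluo-4; FLIPR Ca2+ fluorescence peak (ex 488/em 540 nm). Compound added first (agonism vs Lys-Des-Arg9-bradykinin ≥50 nM human, Des-Arg9-bradykinin 10 μM rat), then after 10-20 min agonist at EC80; antagonism as % inhibition, IC50 from concentration series, n=2-3, N≥2.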

Another assay addresses T2, human μ opiate receptor (Homo sapiens, UniProt P35372).
T2 construct: purchased PerkinElmer Life Sciences, Zaventem, Belgium RB-HOM; host or cells: CHO-K1 cells (membrane preparation)
The assay is described as follows: Affinity for the human μ opiate receptor ([3H]-naloxone displacement, CHO-K1 receptor membrane preparation, SPA). It is filed as binding. A digest of the protocol: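 CHO-K1 membranes expressing human μ receptor incubated 90 min at room temperature with 1 nmol/l [3H]-naloxone and WGA-SPA beads in 50 mmol/l Tris-HCl, 0.06% BSA; 100 μmol/l naloxone defines non-specific binding. Values are % inhibition of specific binding at 1 μM; IC50 converted to Ki by Cheng-Prusoff.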

The target of assay [2] is T3, serotonin (5-HT) reuptake (Rattus norvegicus, UniProt P31652).
T3 construct: synaptosomes are freshly isolated from areas of the rat brain; from tissue; host or cells: rat brain synaptosomes (P2 fraction)
T3 sequence (P31652 whole entry): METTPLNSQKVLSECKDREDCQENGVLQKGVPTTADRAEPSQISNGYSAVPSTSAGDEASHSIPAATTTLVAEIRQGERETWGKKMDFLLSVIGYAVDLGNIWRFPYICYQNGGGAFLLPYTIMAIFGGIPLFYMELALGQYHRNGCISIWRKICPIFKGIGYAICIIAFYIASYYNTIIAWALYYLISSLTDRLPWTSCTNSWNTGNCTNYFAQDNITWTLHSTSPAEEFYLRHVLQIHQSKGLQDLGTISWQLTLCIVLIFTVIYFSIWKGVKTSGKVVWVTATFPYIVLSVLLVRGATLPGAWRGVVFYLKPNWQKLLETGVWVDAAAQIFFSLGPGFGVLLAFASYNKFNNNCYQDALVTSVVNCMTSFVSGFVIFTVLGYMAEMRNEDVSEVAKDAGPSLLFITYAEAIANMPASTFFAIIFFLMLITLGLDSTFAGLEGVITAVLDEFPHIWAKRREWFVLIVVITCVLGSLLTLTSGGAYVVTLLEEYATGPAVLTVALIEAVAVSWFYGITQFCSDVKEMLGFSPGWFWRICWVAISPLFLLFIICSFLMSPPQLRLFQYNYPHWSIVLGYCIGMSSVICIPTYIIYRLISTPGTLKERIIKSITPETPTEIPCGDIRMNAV
As to the kind of experiment: Inhibition of serotonin (5HT) reuptake in synaptosomes from rat brain. The format is biochemical. The method in brief: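 Freshly isolated rat brain synaptosomes (P2 fraction) used for 5-HT reuptake. Test compound at 10 μM, activity given as % inhibition.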

[3] abbreviates: 1.5 h, Table 2, test concentration 1 μM, read-out: μ receptor.
The mark [4] stands for this setting: Table 2, test concentration 10 μM, read-out: 5-HT reuptake.

The structures appear in SMILES notation. Read-outs that look alike come from different tables or passages of the source.

T2 sequence (P35372 whole entry): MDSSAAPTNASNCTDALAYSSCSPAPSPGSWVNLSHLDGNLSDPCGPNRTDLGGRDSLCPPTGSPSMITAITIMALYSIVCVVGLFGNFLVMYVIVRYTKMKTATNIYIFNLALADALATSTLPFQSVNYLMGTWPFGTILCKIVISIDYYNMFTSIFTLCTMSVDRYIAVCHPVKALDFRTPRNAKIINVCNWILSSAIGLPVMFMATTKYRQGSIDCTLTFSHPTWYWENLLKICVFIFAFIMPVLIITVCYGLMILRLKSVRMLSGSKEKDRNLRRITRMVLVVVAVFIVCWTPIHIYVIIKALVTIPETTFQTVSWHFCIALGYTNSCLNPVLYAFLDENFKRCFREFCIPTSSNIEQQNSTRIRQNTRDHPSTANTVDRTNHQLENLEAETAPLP

`CN(C)C(c1ccccc1)C1CCC(NC(=O)COCCN(C2CC2)S(=O)(=O)c2c(Cl)cc(Cl)cc2Cl)CC1` (stereo not drawn) [Example 600, 2-{2-[cyclopropyl-(2,4,6-trichlorobenzenesulfonyl)-amino]-ethoxy}-N-[4-(dimethylaminophenylmethyl)-cyclohexyl]-acetamide]: the figures for the inhibition at 10 µM in assay [1] and in assay [2] (setting [4]) were 101% and 60%, respectively. At human μ opiate receptor (setting [3]), the inhibition at 1 µM worked out at 95%.
For `COc1cc(C)c(S(=O)(=O)N(C)CCOCC(=O)NCC2CCC(C(CCc3ccccc3)N(C)C)CC2)c(C)c1C` (stereo not drawn) [Example 453], the “B1R Ant. h [10 μM] % Inhibition” value in assay [1] is given as 97%. Also, the “μ (binding on the μ opioid receptor, % inhibition)” value on human μ opiate receptor (test concentration of 1 μM) is listed as 46%. Besides, in assay [2] (test concentration of 10 μM), the “5-HT (inhibition of reuptake of serotonin, % inhibition)” value came out at 89%.
Take `CN(C)C(c1ccccc1)C1CCC(NC(=O)COCCN(C)S(=O)(=O)c2c(Cl)cc(Cl)cc2Cl)CC1` (stereo not drawn) [Example 598, N-[4-(dimethylaminophenylmethyl)-cyclohexyl]-2-{2-[methyl-(2,4,6-trichlorobenzenesulfonyl)-amino]-ethoxy}-acetamide]: the “B1R Ant. h [10 μM] % Inhibition” value in assay [1] came to 86%. Moreover, on human μ opiate receptor (setting [3]), the inhibition at 1 µM worked out at 91%. Further, the inhibition at 10 µM in assay [2] (setting [4]) was 75%.
On to `CN(C)C(c1ccccc1)C1CCC(NC(=O)COc2ccccc2N(C)S(=O)(=O)c2ccc(Cl)c(Cl)c2)CC1` (stereo not drawn) [Example 166, 2-(2-(3,4-dichloro-N-methylphenylsulfonamido)phenoxy)-N-(4-((dimethylamino)(phenyl)methyl)cyclohexyl)acetamide], for which the inhibition at 10 µM was 74% in assay [1] and 91% in assay [2] (test concentration of 10 μM, read-out: 5-HT (inhibition of reuptake of serotonin, % inhibition)). In addition, the inhibition at 1 µM at human μ opiate receptor (test concentration of 1 μM, read-out: μ (binding on the μ opioid receptor, % inhibition)) came to 87%.

(Values after patent publication US8106055B2, “Substituted amide compounds” (Gruenenthal GmbH, priority 2007, dated 2012).)
